This is an account of results in patent US4055640A, “Compositions and methods for controlling the growth of bacteria, fungi and algae using certain derivatives of N-(2,2-dichlorovinyl)salicylamides” (Nippon Kayaku Co., Ltd., priority 1975, dated 1977).

Data set [1] has as its system Cladosporium cucumerinum (cucumber scab). Kind of data set: Exterminating test on cucumber scab (Experimental Example 2). The following applies: 500 ppm, 5 days after inoculation. The arrangement: scale not given here. The format is in vivo. The procedure:
Exterminating test on cucumber scab
(§1) The cucumber seeds (variety: Sagamihanjiro) were sown in pots (diameter 18 cm). Eighty percent (80%) wettable powder (contents of active compound: 80%) of the present invention was diluted with water to obtain a suspension. The suspension was sprayed over the cucumber seedlings of the stage of 3-4 leaves in an amount of 20 ml per pot. After 24 hours, these pots were inoculated by means of spray of spore suspension of Cladosporium cucumerinum. The thus-inoculated seedlings were placed in a moist chamber at 20° C for 24 hours. The pots were continuously kept in a greenhouse at 20° C. The following wettable powders on the market were used as controls.
70% wettable powder of 1,2-bis (3-methoxy carbonyl-2-thioureid) benzene (hereinafter referred to as "thiophanate methyl") on the market.
75% wettable powder of ethylene bis (dithiocarbamic acid) manganese (hereinafter referred to as "maneb") on the market. After 5 days of the inoculation, degrees attached by the pathogen were observed and the results were shown in Table 3 with an "Infected Index". The "Infected Index" was calculated as follows: [formula] A : Number of leaves which were killed by hard attack B : Number of leaves severely attacked
C : number of leaves slightly attacked
D : number of healthy leaves

Data set [2] relates to seedlings of kidney beans (variety: Orient). Kind of data set: Phytotoxicity on kidney beans (Experimental Example 5). The data set is classed as in vivo. The following applies: 1,000 ppm.
Data set [3] concerns seedling blight of rice plant (pathogen Fusarium sp. and Rhizoctonia sp.). The data set can be described thus: Exterminating test on seedling blight of rice plant (Experimental Example 1). The format is in vivo. The following applies: soil, 408 h, 0.25g/box a.i., 5% dust mixed with soil; read-out: Percentage of healthy seedlings. The procedure:
Exterminating test on seedling blight of rice plant Nursery boxes (60 × 30 × 3 cm) were filled with soil which were contaminated with pathogen (Fusarium sp. and Rhizoctonia sp.) The dust in which the present compound was contained in a ratio of 5% by weight was added in the box in a ratio of 5 grams per box and mixed well with soil. Thereafter, seeds of rice plant (variety: Nihonbare) were sowed in drills at a rate of 0.3 liter per box and grown up in a lighting chamber at 17° C. After 7 days from the sowing, the boxes were carried out in the field. Furthermore, 10 days thereafter the observations were made. Four percent (4%) dust of 3-hydroxy-5-methyl isoxazol (hereinafter referred to as hydroxyisoxazol) on the market was used as a control and tested by the same method. The test results are shown in Table 2 with a "percentage of healthy seedlings". The percentage of healthy seedlings was calculated as follows: […]

Data set [4] has as its system botrytis cinerea (gray mold). Kind of data set: Exterminating test on gray mold of tomato (Experimental Example 5). The arrangement: scale not given here. The data set is classed as in vivo. As to conditions: 1,000 ppm, 48 hours after inoculation, kidney bean leaves. As to the method: Exterminating test on gray mold of tomato The seedlings of kidney beans (variety: Orient) of 5-6 leaves stage were employed in this test. Eighty percent (80%) wettable powder of the present invention was diluted with water and sprayed over the seedlings in an amount of 10 ml per pot. The leaves were cut from the plant at 24 hours after spraying, and placed in the petri dishes (12 cm in diameter). Thereafter disks (5 mm in diameter) were cut with a cork borer from potato dextrose agar on which the pathogen (botrytis cinerea) was cultured. The disks were placed on the leaves. The dishes were placed in such a moistural condition as to cause the pathogen to propagate. Thiophanate methyl 70% wettable powder on the market was used as a control and tested by the same method. After forty eight (48) hours after inoculation, diameters of the lesions were observed, and an "Effect Index" was calculated as follows; [formula]

The test system of a further data set is summer orange seedlings. The data set can be described thus: Phytotoxicity on summer orange seedlings (Experimental Example 6). The format is in vivo. As to conditions: 1,000 ppm. The procedure:
(§2) Exterminating test on citrus canker. 4-year-old summer orange seedlings, planted in unglazed pots having a diameter of 20 cm, were employed in this test. Eighty percent (80%) wettable powder of the present invention was diluted with water, and sprayed over the seedlings in an amount of 50 ml per pot. The leaves of the seedlings were inoculated Xanthomonas citri by means of a needle. After the inoculation, the seedlings were maintained in a moist chamber at 25° C for 24 hours. Then the pots were transferred into the greenhouse. Streptomycin 20% wettable powder was used as a control, and tested by the same method. After 2 weeks after the inoculation, degrees of disease attack were observed, and an "Effect Index" was calculated as follows: [formula]

The next data set relates to fungi. The data set can be described thus: Degree of propagation on slime test boards (Example 27). The format is cell-based. The following applies: same method, shaking culture for 2 days. As to the method: (§3) Zero point zero two (0.02) part of active compounds in the form of 10% water soluble concentrate which was prepared by Example 23 was added into 100 parts of Waxman's liquid medium. Peices of Wood iron (hereafter referred to as the slime test boards) were soaked into the Waxman's liquid medium. The bacteria which were gathered from circular water system were inoculated upon the Waxman's liquid medium and incubated at 27°-34° C by shaking culture for 2 days. The degree of propagation of the bacteria on the slime test boards was examined.
(§4) Thegrowth-inhibiting activity of active compounds against the fungi and the green algae was also examined by the same method as mentioned above.
(§5) The degree of propagation of the bacteria, fungi or green algae on the test boards is defined in terms of the following symbols.

The subject of data set [5] is bacteria gathered from circular water system. The description is as above. The data set is classed as cell-based. The following applies: shaking culture for 2 days. The procedure:
as §3, §4, §5

The test system of a further data set is green algae. The data set is described as above. The format is cell-based. The following applies: same method, shaking culture for 2 days. As to the method: as §3, §4, §5
The test system of another data set is Bacillus subtilis. Kind of data set: Region of growth-inhibition around treated cotton cloth (Example 26). The data set is classed as cell-based. The following applies: emulsifiable concentrate diluted 100 times. As to the method: (§6) The emulsifiable concentrates which were prepared by Example 20 were diluted with water 100 times to form an emulsion. A cloth of cotton was soaked into each emulsion for 2 minutes. The clothes were dried at room temperature and cut into a square of which a side was 1 cm long. Each kind of test bacteria and fungi was inoculated, separately, on plates of potato-agar and one square cloth placed on each of such plates. Test bacteria and fungi were cultivated at 28° C for 4 days. The width of the region of growth-inhibition which was formed a circumference of the cloth was measured.

The test system of the next data set is Staphylococcus oureus. The data set is described as above. The format is cell-based. The following applies: emulsifiable concentrate diluted 100 times. As to the method: as §6
The subject of a further data set is Aspergillus niger. The description is as above. The data set is classed as cell-based. As to conditions: emulsifiable concentrate diluted 100 times. As to the method:
as §6

For the next data set, the system named is Penicillium Citrinum. The description is as above. The data set is classed as cell-based. The following applies: emulsifiable concentrate diluted 100 times. As to the method: as §6
Data set [6] relates to Aspergillus niger, Penicillium citrinum, Cladosporium harbarum and chaetomium globosum. The data set can be described thus: Degree of growth inhibition of fungi on treated beach plates (Example 25). The data set is classed as cell-based. The arrangement: scale not given here. As to conditions: numerical rating, 2 weeks. The procedure:
The emulsifiable concentrates which were prepared by Example 20 were diluted with water 400 times and 800 times to form emulsions.
The square plates of beach of which a side was 5 cm long and thickness was 5 mm were dipped into the emulsion for 2 minutes and dried for 24 hours at room temperature.
The square plates were placed on the surface of agar plates. The suspensions which contained spores of Aspergillus niger, Penicillium citrinum, Cladosporium harbarum and chaetomium globosum were respectively sprayed on the agar plates and the square plates.
The test fungi were cultivated in the incubator at the humidity of 95% and the temperature of 28° C for 2 weeks. The degree of growth inhibition is defined in terms of the following numerical ratings.

For data set [7], the system named is cucumber seedlings (variety: Sagamihanjiro). Kind of data set: Phytotoxicity on cucumber seedlings (Experimental Example 2). The data set is classed as in vivo. The following applies: 500 ppm. As to the method:
as §1

Data set [8] concerns Fusarium wilt of cucumber. Kind of data set: Exterminating test on Fusarium wilt of cucumber (Experimental Example 4). The data set is classed as in vivo, Fusarium oxysporum f, cucumerinum. As to conditions: Fusarium, soil, 336 h, 500 ppm, soil drench 100 ml per pot, two weeks; read-out: Percentage of healthy seedlings. The procedure: Exterminating test on Fusarium wilt of cucumber Twenty (20) grams of infected soil was added uniformly into each pot which was filled with steam sterilized field soil, then 18 seeds of cucumber (variety; Tokiwazibai) were sowed in each pot. Eighty percent (80%) wettable powder of the present invention was diluted with water to obtain a suspension, and each pot was drenched with the suspension in an amount of 100 ml. Fifty percent (50%) wettable powder of methyl-1-(butylcarbamoyl) 2-benzimidazol carbamate (hereinafter referred to as Benlate) on the market was used as a control and tested by the same method. After two weeks of planting, degrees attacked by the pathogen was observed and a "percentage of healthy seedlings" was calculated as follows: [formula]

The subject of data set [9] is Rhizoctonia solani (damping-off of cucumber). Kind of data set: Exterminating test on damping-off of cucumber (Experimental Example 3). The data set is classed as in vivo. The following applies: Rhizoctonia solani, soil, 240 h, 1,000 ppm, soil drench 50 ml per pot, 10 days; read-out: Percentage of healthy seedlings. As to the method:
Exterminating test on damping-off of cucumber
The pots (diameter, 12 cm) were filled with field soil and then soil infected by adding Rhizoctonia solani in an amount of 5 grams per pot uniformly into the pots. Thereafter, 10 seeds of cucumber (variety: Azumamidori) were sown in each pot.
Eighty percent (80%) wettable powder of the present invention was diluted with water to obtain a suspension and each pot was drenched with the suspension in an amount of 50 milliliters. Then, the pots were transferred to the greenhouse. Fifty percent (50%) wettable powder of pentachloronitro benzene (hereinafter referred to as PCNB) on the market was used as a control and tested by the same method. After 10 days of the inoculation, degrees attacked by the pathogen were observed and a "Percentage of healthy seedlings" was calculated. The "Percentage of healthy seedlings" was calculated as follows: [formula]

Data set [10] deals with Xanthomonas citri (citrus canker). Kind of data set: Exterminating test on citrus canker (Experimental Example 6). The data set is classed as in vivo. The following applies: Xanthomonas citri, 336 h, read-out: Effect Index, 1,000 ppm, 2 weeks after inoculation. The procedure: as §2

On to `O=C(NC=C(Cl)Cl)c1cc(Cl)ccc1O` [Compound No. 2, N-(2',2'-dichlorovinyl)-5-chlorosalicylamide], for which the “Infected Index” value in data set [1] amounted to 11.0. The Phytotoxicity result (in data set [2]; in the data set with summer orange seedlings; in data set [7]) was “Nil” in each case. Further, the Percentage of healthy seedlings at 0.25 g/box in data set [3] stood at 72.4%. In data set [4], the “Effect Index” value stood at 79. In addition, the Degree of propagation result (in the data set on fungi; in [5]; with green algae) was “-” each time. Moreover, the “width of the region of growth-inhibition” value was 9 mm in the data set with Bacillus subtilis, 10 mm in the data set on Staphylococcus oureus, 5 mm with Aspergillus niger and 5 mm with Penicillium Citrinum. Also, the “Degree of growth inhibition” value in data set [6] (0.0125 %) is given as 2; in data set [6] (0.025 %), 3.

As to `CCCC(=O)Oc1ccccc1C(=O)NC=C(Cl)Cl` [compound 10], the Phytotoxicity result in [2] is recorded as “Nil”. Further, the Percentage of healthy seedlings at 0.25 g/box in [3] was 72.1%. The “Effect Index” value in data set [4] is on record as 88. For the same compound, the pest or weed control at 500 ppm in [8] turned out to be 70%. For the same compound, the pest or weed control at 1000 ppm in [9] turned out to be 100%. The Degree of propagation entry in the data set on fungi is recorded as “-”; in data set [5] it was “+ (the area of propagation is 1-25% on the slime test boards.)”; in the data set on green algae, “-”. The “Degree of growth inhibition” value in data set [6] (0.0125 %) and in data set [6] (0.025 %) was 3 each time.

As to `CCC(=O)Oc1ccccc1C(=O)NC=C(Cl)Cl` [Compound No. 9], the Percentage of healthy seedlings at 0.25 g/box in data set [3] was 69.8%. Also, in data set [8], the pest or weed control at 500 ppm is 75%. Also, the pest or weed control at 1000 ppm in data set [9] is 90%. For the same compound, the Degree of propagation entry (with fungi; in [5]; in the data set on green algae) was “-” in each case. The “width of the region of growth-inhibition” value stood at 9 mm in the data set on Bacillus subtilis, 7 mm with Staphylococcus oureus, 6 mm with Aspergillus niger and 6 mm with Penicillium Citrinum. The “Degree of growth inhibition” value in data set [6] (0.0125 %) and in [6] (0.025 %) was 3 each time.

As to `CC(=O)Oc1ccc(Cl)cc1C(=O)NC=C(Cl)Cl` [Compound No. 7, O-acetyl-N-(2',2'-dichlorovinyl)-5-chlorosalicylamide], the Percentage of healthy seedlings at 0.25 g/box in [3] came out at 70.2%. For the same compound, the pest or weed control at 500 ppm in data set [8] is 76.5%. Besides, the Degree of propagation entry (in the data set on fungi; in [5]; in the data set with green algae) was “-” each time. In addition, the “width of the region of growth-inhibition” value with Bacillus subtilis was 12 mm; with Staphylococcus oureus, 11 mm; in the data set on Aspergillus niger, 10 mm; in the data set on Penicillium Citrinum, 10 mm. In addition, the “Degree of growth inhibition” value in [6] (0.0125 %) and in data set [6] (0.025 %) was 5 each time.

Take `O=C(CCl)Oc1ccccc1C(=O)NC=C(Cl)Cl` [compound 13]: the Percentage of healthy seedlings at 0.25 g/box in data set [3] amounted to 62%. The Phytotoxicity result in the data set on summer orange seedlings is “Nil”. Also, the pest or weed control at 500 ppm in data set [8] amounted to 70.5%. Also, the pest or weed control at 1000 ppm in [9] is 100%; in data set [10], 67.3%. Moreover, the Degree of propagation result (in the data set on fungi; in data set [5]; in the data set with green algae) was “-” in each case. For the same compound, the “width of the region of growth-inhibition” value in the data set on Bacillus subtilis was 7 mm; with Staphylococcus oureus, 6 mm; with Aspergillus niger, 6 mm; in the data set with Penicillium Citrinum, 7 mm. The figures for the “Degree of growth inhibition” value in [6] (0.0125 %) and in data set [6] (0.025 %) were 2 and 3, respectively.
